System: CHO^R cells
Assay: Reversal of multidrug resistance: cell growth in vinblastine resistant tumor cell line, cell number by Coulter counter
Type: cell-based
Settings: 72 hr
Procedure: CHO^R cells were plated at a density of 1X10⁵/35mm dish and were allowed to grow overnight at 37°C in a CO₂ incubator. The medium was replaced with medium containing the compounds and vinblastine (0.2 µg/ml). The cells were allowed to grow for further 72 hr and the cell number was determined by Coulter counter after trypsinization. […]

In the case of `CC[C@]1(O)C[C@@H]2CN(CCc3c([nH]c4ccccc34)[C@@](C(=O)OC)(c3cc4c(cc3OC)N(C)[C@H]3[C@@](O)(C(=O)OC)[C@H](OC(C)=O)[C@]5(CC)C=CCN6CC[C@]43[C@@H]65)C2)C1` [VLB, vinblastine, reference compound], the “effect on cell growth” value (VLB alone at 0.2 µg/ml) was “did not have any effect on cell growth”.
For `CCCc1[nH]c(=O)oc1-c1ccncc1` [4-PROPYL-5(4-PYRIDINYL)-2(3H)-OXAZOLONE, 4-propyl-5-(4-pyridinyl)-2(3H)-oxazolone], the “% Inhibition of Cell Growth Compound + VLB” value (“% Inhibition” for short) (compound 0.1 µg/ml plus vinblastine 0.2 µg/ml) was 6%, the inhibition at 0.1 µg/mL (compound 0.1 µg/ml, without VLB, read-out: % Inhibition of Cell Growth Compound Only) was 0% and the “% Inhibition” value (compound 1 µg/ml plus vinblastine 0.2 µg/ml) was 22%. The inhibition at 1 µg/mL (compound 1 µg/ml, without VLB, read-out: % Inhibition of Cell Growth Compound Only) was 0%, the “% Inhibition” value (compound 10 µg/ml plus vinblastine 0.2 µg/ml) was 82% and the inhibition at 10 µg/mL (compound 10 µg/ml, without VLB, read-out: % Inhibition of Cell Growth Compound Only) was 55%.

Reference: patent EP0428104A2, “Treatment of multi-drug resistant tumors with pyridyloxazole-2-ones” (MERRELL DOW PHARMACEUTICALS INC., priority 1989, dated 1991)
